Experimental data: the supplement of paper PMC8671470

Legend:
Settings in all cases: 72 h
[1] = tested on: MV4-11; assay: cell viability (% survival relative to DMSO control, bortezomib = 0%); higher = less cytotoxic
Outline: (§1)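 After 72 h at 37 °C with 5% CO2, cell viability in 384-well plates was measured by CellTiter-Glo luminescence. The plates held compounds pre-printed at 1, 10, 100, 1000 or 10000 nM in duplicate, and cells from 10 AML and 5 CML lines seeded at densities titrated to linear growth. Percent survival is the duplicate mean, normalised to vehicle as 100% and a 10 µM positive control as 0%.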

[2] = tested on: MOLM-13; assay: as above
Outline: as §1

[3] = tested on: NOMO-1; assay: as above
Outline: as §1

[4] = tested on: SHI-1; assay: as above
Outline: as §1

[5] = tested on: BV-173; assay: as above
Outline: as §1

[6] = tested on: KCL-22; assay: as above
Outline: as §1

[7] = tested on: HL-60; assay: as above
Outline: as §1

[8] = tested on: Mono-Mac-6; assay: as above
Outline: as §1

[9] = tested on: K-562; assay: as above
Outline: as §1

[10] = tested on: KG-1; assay: as above
Outline: as §1

[11] = tested on: KU-812; assay: as above
Outline: as §1

[12] = tested on: THP-1; assay: as above
Outline: as §1

[13] = tested on: ML-2; assay: as above
Outline: as §1

[14] = tested on: HEL; assay: as above
Outline: as §1

[15] = tested on: LAMA-84; assay: as above
Outline: as §1

[16] = tested on: MV4-11
Outline: (§2)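 For the IC50, dose–response curves were fitted with a log-logistic model. The data came from fifteen myeloid leukaemia cell lines grown in RPMI 1640 at densities in the linear growth range and incubated in 384-well plates for 72 h at 37 °C under 5% CO2. Doses were five tenfold steps from 1 to 10,000 nM in duplicate, and luminescent ATP viability was normalised to vehicle and to a positive control at 10 µM before four-parameter fitting.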

[17] = tested on: MOLM-13
Outline: as §2

[18] = tested on: NOMO-1
Outline: as §2

[19] = tested on: SHI-1
Outline: as §2

[20] = tested on: BV-173
Outline: as §2

[21] = tested on: KCL-22
Outline: as §2

[22] = tested on: HL-60
Outline: as §2

[23] = tested on: Mono-Mac-6
Outline: as §2

[24] = tested on: K-562
Outline: as §2

[25] = tested on: KG-1
Outline: as §2

[26] = tested on: KU-812
Outline: as §2

[27] = tested on: THP-1
Outline: as §2

[28] = tested on: ML-2
Outline: as §2

[29] = tested on: HEL
Outline: as §2

[30] = tested on: LAMA-84
Outline: as §2

CN(Cc1cnc2nc(N)nc(N)c2n1)c1ccc(C(=O)N[C@@H](CCC(=O)O)C(=O)O)cc1 [Methotrexate]
cell viability [%]
Settings | 1 nM | 10 nM | 100 nM | 1000 nM | 10000 nM
[1] | 112 | 45.4 | 3.4 | 2.47 | 3.21
[2] | 88.1 | 33.1 | 0.91 | 0.853 | 0.962
[3] | 108 | 94.8 | 40.4 | 29.4 | 30.8
[4] | 83.7 | 90.7 | 44.4 | 35.8 | 47.1
[5] | 107 | 98.3 | 2.71 | 1.64 | 2.28
[6] | 97.1 | 59.2 | 40.4 | 21.1 | 20.7
[7] | 81.5 | 32 | 5.38 | 7.28 | 8.39
[8] | 105 | 44.3 | 5.95 | 7.21 | 7.86
[9] | 86.9 | 103 | 13.3 | 18.9 | 21.7
[10] | 104 | 93.8 | 98.9 | 94.3 | 92.9
[11] | 99 | 63.1 | 38.9 | 33.3 | 42.5
[12] | 99.8 | 96.6 | 13 | 10.3 | 11.8
[13] | 109 | 49.7 | 3.59 | 3.44 | 4.58
[14] | 102 | 18.6 | 27.9 | 6.63 | 7.79
[15] | 98.8 | 34 | 22.7 | 19.4 | 20.8

Settings | IC50 (cell viability) [µM]
[16] | 0.00896
[17] | 0.00757
[18] | 0.0515
[19] | 0.0808
[20] | 0.0323
[21] | 0.0126
[22] | 0.00701
[23] | 0.00826
[24] | 0.033
[25] | > 10
[26] | 0.0157
[27] | 0.0319
[28] | 0.00965
[29] | 0.0037
[30] | 0.00473
